PubChem BioAssay (NCI)
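Dose response: 5 concentrations. Exposure: 48 h. Format: 96-well plates. Endpoint: linear interpolation; highest concentration if not reached. Definition used: TGI = concentration required for complete inhibition of growth.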

Key:
Assay in all cases: DTP human tumour cell line panel, 48 h
786-0 renal = tested on: 786-0 renal
A549 NSCLC = tested on: A549 NSCLC
ACHN renal = tested on: ACHN renal
CAKI-1 renal = tested on: CAKI-1 renal
CCRF-CEM leukemia = tested on: CCRF-CEM leukemia
COLO 205 colon = tested on: COLO 205 colon
DLD-1 colon = tested on: DLD-1 colon
DMS 273 small cell lung = tested on: DMS 273 small cell lung
EKVX NSCLC = tested on: EKVX NSCLC
HCC-2998 colon = tested on: HCC-2998 colon
HCT-15 colon = tested on: HCT-15 colon
HL-60(TB) leukemia = tested on: HL-60(TB) leukemia
HOP-62 NSCLC = tested on: HOP-62 NSCLC
HOP-92 NSCLC = tested on: HOP-92 NSCLC
IGROV1 ovarian = tested on: IGROV1 ovarian
K-562 leukemia = tested on: K-562 leukemia
KM12 colon = tested on: KM12 colon
KM20L2 colon = tested on: KM20L2 colon
LOX IMVI melanoma = tested on: LOX IMVI melanoma
LXFL 529 NSCLC = tested on: LXFL 529 NSCLC
M14 melanoma = tested on: M14 melanoma
M19-MEL melanoma = tested on: M19-MEL melanoma
MALME-3M melanoma = tested on: MALME-3M melanoma
MOLT-4 leukemia = tested on: MOLT-4 leukemia
NCI-H23 lung = tested on: NCI-H23 lung
NCI-H460 lung = tested on: NCI-H460 lung
NCI-H522 lung = tested on: NCI-H522 lung
OVCAR-3 ovarian = tested on: OVCAR-3 ovarian
OVCAR-4 ovarian = tested on: OVCAR-4 ovarian
OVCAR-5 ovarian = tested on: OVCAR-5 ovarian
OVCAR-8 ovarian = tested on: OVCAR-8 ovarian
RPMI-8226 leukemia = tested on: RPMI-8226 leukemia
RXF 393 renal = tested on: RXF 393 renal
RXF-631 renal = tested on: RXF-631 renal
SF-268 CNS = tested on: SF-268 CNS
SF-295 CNS = tested on: SF-295 CNS
SK-MEL-2 melanoma = tested on: SK-MEL-2 melanoma
SK-MEL-28 melanoma = tested on: SK-MEL-28 melanoma
SK-MEL-5 melanoma = tested on: SK-MEL-5 melanoma
SK-OV-3 ovarian = tested on: SK-OV-3 ovarian
SN12C renal = tested on: SN12C renal
SNB-19 CNS = tested on: SNB-19 CNS
SNB-75 CNS = tested on: SNB-75 CNS
SNB-78 CNS = tested on: SNB-78 CNS
SW-620 colon = tested on: SW-620 colon
TK-10 renal = tested on: TK-10 renal
UACC-257 melanoma = tested on: UACC-257 melanoma
UACC-62 melanoma = tested on: UACC-62 melanoma
UO-31 renal = tested on: UO-31 renal
XF 498 CNS = tested on: XF 498 CNS
A498 renal = tested on: A498 renal
DMS 114 small cell lung = tested on: DMS 114 small cell lung
HCT-116 colon = tested on: HCT-116 colon
NCI-H226 lung = tested on: NCI-H226 lung
SF-539 CNS = tested on: SF-539 CNS
U251 CNS = tested on: U251 CNS

COc1cc(OC)cc(N2CCC(c3c(N)nc(N)nc3Cl)CC2)c1
TGI (786-0 renal): > 100 µM | TGI (A549 NSCLC): > 100 µM | TGI (ACHN renal): > 100 µM | TGI (CAKI-1 renal): > 100 µM | TGI (CCRF-CEM leukemia): > 100 µM | TGI (COLO 205 colon): > 100 µM | TGI (DLD-1 colon): > 100 µM | TGI (DMS 273 small cell lung): > 100 µM | TGI (EKVX NSCLC): > 100 µM | TGI (HCC-2998 colon): > 100 µM | TGI (HCT-15 colon): > 100 µM | TGI (HL-60(TB) leukemia): > 100 µM | TGI (HOP-62 NSCLC): > 100 µM | TGI (HOP-92 NSCLC): > 100 µM | TGI (IGROV1 ovarian): > 100 µM | TGI (K-562 leukemia): > 100 µM | TGI (KM12 colon): > 100 µM | TGI (KM20L2 colon): > 100 µM | TGI (LOX IMVI melanoma): > 100 µM | TGI (LXFL 529 NSCLC): > 100 µM | TGI (M14 melanoma): > 100 µM | TGI (M19-MEL melanoma): > 100 µM | TGI (MALME-3M melanoma): > 100 µM | TGI (MOLT-4 leukemia): > 100 µM | TGI (NCI-H23 lung): > 100 µM | TGI (NCI-H460 lung): > 100 µM | TGI (NCI-H522 lung): > 100 µM | TGI (OVCAR-3 ovarian): > 100 µM | TGI (OVCAR-4 ovarian): > 100 µM | TGI (OVCAR-5 ovarian): > 100 µM | TGI (OVCAR-8 ovarian): > 100 µM | TGI (RPMI-8226 leukemia): > 100 µM | TGI (RXF 393 renal): > 100 µM | TGI (RXF-631 renal): > 100 µM | TGI (SF-268 CNS): > 100 µM | TGI (SF-295 CNS): > 100 µM | TGI (SK-MEL-2 melanoma): > 100 µM | TGI (SK-MEL-28 melanoma): > 100 µM | TGI (SK-MEL-5 melanoma): 97.7 µM | TGI (SK-OV-3 ovarian): > 100 µM | TGI (SN12C renal): > 100 µM | TGI (SNB-19 CNS): > 100 µM | TGI (SNB-75 CNS): > 100 µM | TGI (SNB-78 CNS): > 100 µM | TGI (SW-620 colon): > 100 µM | TGI (TK-10 renal): > 100 µM | TGI (UACC-257 melanoma): > 100 µM | TGI (UACC-62 melanoma): > 100 µM | TGI (UO-31 renal): > 100 µM | TGI (XF 498 CNS): > 100 µM

CCCCOC1CC2(c3ccc(OC)cc3)C(=O)c3ccccc3N2O1 (configuration not stated)
TGI (786-0 renal): > 100 µM | TGI (A498 renal): > 10 µM | TGI (A549 NSCLC): > 100 µM | TGI (ACHN renal): > 10 µM | TGI (CAKI-1 renal): > 100 µM | TGI (CCRF-CEM leukemia): > 100 µM | TGI (COLO 205 colon): 54.1 µM | TGI (DMS 114 small cell lung): 99.5 µM | TGI (DMS 273 small cell lung): > 10 µM | TGI (EKVX NSCLC): > 100 µM | TGI (HCT-116 colon): > 100 µM | TGI (HCT-15 colon): > 10 µM | TGI (IGROV1 ovarian): > 10 µM | TGI (K-562 leukemia): > 100 µM | TGI (KM12 colon): > 100 µM | TGI (KM20L2 colon): > 10 µM | TGI (LOX IMVI melanoma): > 10 µM | TGI (M14 melanoma): > 100 µM | TGI (M19-MEL melanoma): > 10 µM | TGI (MALME-3M melanoma): 58.3 µM | TGI (MOLT-4 leukemia): 61.5 µM | TGI (NCI-H226 lung): > 10 µM | TGI (NCI-H460 lung): > 10 µM | TGI (NCI-H522 lung): 81.2 µM | TGI (OVCAR-3 ovarian): > 100 µM | TGI (OVCAR-5 ovarian): > 10 µM | TGI (OVCAR-8 ovarian): > 100 µM | TGI (RPMI-8226 leukemia): 65.7 µM | TGI (RXF 393 renal): 50 µM | TGI (RXF-631 renal): > 10 µM | TGI (SF-268 CNS): > 100 µM | TGI (SF-295 CNS): > 100 µM | TGI (SF-539 CNS): > 100 µM | TGI (SK-MEL-2 melanoma): > 100 µM | TGI (SK-MEL-5 melanoma): 88.4 µM | TGI (SK-OV-3 ovarian): > 100 µM | TGI (SN12C renal): > 10 µM | TGI (SNB-19 CNS): > 10 µM | TGI (SNB-75 CNS): > 100 µM | TGI (SNB-78 CNS): > 10 µM | TGI (SW-620 colon): > 100 µM | TGI (TK-10 renal): > 100 µM | TGI (U251 CNS): > 10 µM | TGI (UACC-257 melanoma): 70.1 µM | TGI (UACC-62 melanoma): > 10 µM | TGI (UO-31 renal): > 10 µM | TGI (XF 498 CNS): > 10 µM
